The NIST ThermoML archive (doi:10.1021/acs.jced.8b00153)
Numbers after ± are expanded uncertainties.

Assay: refractive index (Na D-line) (dimensionless)
Conditions: 100 kPa, Liquid, Standard Abbe refractometry

SMILES	refractive index (283.15 K)	refractive index (285.65 K)	refractive index (288.15 K)	refractive index (290.65 K)	refractive index (293.15 K)	refractive index (295.65 K)	refractive index (298.15 K)	refractive index (300.65 K)	refractive index (303.15 K)	refractive index (305.65 K)	refractive index (308.15 K)	refractive index (310.65 K)	refractive index (313.15 K)	refractive index (315.65 K)	refractive index (318.15 K)	refractive index (320.65 K)	refractive index (323.15 K)	refractive index (325.65 K)	refractive index (328.15 K)	refractive index (330.65 K)	also measured
CCc1ccco1 [2-ethylfuran]	1.44533 ± 0.00033	1.4439 ± 0.00033	1.44245 ± 0.00033	1.44101 ± 0.00033	1.43956 ± 0.00033	1.43817 ± 0.00033	1.43672 ± 0.00033	1.43531 ± 0.00033	1.43387 ± 0.00033	1.43244 ± 0.00033	1.431 ± 0.00033	1.42958 ± 0.00033	1.42814 ± 0.00033	1.42671 ± 0.00033	1.42528 ± 0.00033	1.42385 ± 0.00033	1.42241 ± 0.00033	1.42097 ± 0.00033	1.41953 ± 0.00033	1.4181 ± 0.00033	refractive index (333.15 K): 1.41669 ± 0.00033; refractive index (335.65 K): 1.41523 ± 0.00033; refractive index (338.15 K): 1.41379 ± 0.00033
CCc1cccs1 [2-ethylthiophene]	1.51841 ± 0.00037	1.51699 ± 0.00037	1.51557 ± 0.00037	1.51417 ± 0.00037	1.51272 ± 0.00037	1.51125 ± 0.00037	1.50981 ± 0.00037	1.50841 ± 0.00037	1.50698 ± 0.00037	1.50556 ± 0.00037	1.50413 ± 0.00037	1.50269 ± 0.00037	1.50125 ± 0.00037	1.49981 ± 0.00037	1.49836 ± 0.00037	1.49695 ± 0.00037	1.4955 ± 0.00037	1.49405 ± 0.00037	1.49261 ± 0.00037	1.49116 ± 0.00037	refractive index (333.15 K): 1.48973 ± 0.00037; refractive index (335.65 K): 1.48827 ± 0.00037; refractive index (338.15 K): 1.48684 ± 0.00037
